Assay results taken from US20100069366A1, “ANTIBACTERIAL QUINOLINE DERIVATIVES” (JANSSEN-CILAG, priority 2006, published 2010).
Converted amounts (≈) assume the structure as drawn. Read-outs that look alike come from different tables or passages of the source.

Experiments:
Type in all cases: cell-based
[1] = system: Pseudomonas aeruginosa (ATCC27853); experiment: Microtitre plate assay, IC90 determination, PAE 27853
Experimental: (§1) The bacteria used in this study were grown overnight in flasks containing 100 ml Mueller-Hinton Broth (Becton Dickinson—cat. no. 275730) in sterile de-ionized water, with shaking, at 37° C. Stocks (0.5 ml/tube) were stored at −70° C. until use. Bacteria titrations were performed in microtiter plates to detect the TCID50, in which the TCID50 represents the dilution that gives rise to bacterial growth in 50% of inoculated cultures.
(§2) In general, an inoculum level of approximately 100 TCID50 was used for susceptibility testing.
(§3) Flat-bottom, sterile 96-well plastic microtiter plates were filled with 180 μl of sterile deionized water, supplemented with 0.25% BSA. Subsequently, stock solutions (7.8× final test concentration) of compounds were added in 45 μl volumes in column 2 Serial five-fold dilutions (45 μl in […]) were made directly in the microtiter plates from column 2 to reach column 11. Untreated control samples with (column 1) and without (column 12) inoculum were included in each microtiter plate. Depending on the bacteria type, approximately 10 to 60 CFU per well of bacteria inoculum (100 TCID50), in a volume of 100 μl in 2.8× Mueller-Hinton broth medium, was added to the rows A to H, except column 12. The same volume of broth medium without inoculum was added to column 12 in row A to H. The cultures were incubated at 37° C. for 24 hours under a normal atmosphere (incubator with open air valve and continuous ventilation). At the end of incubation, one day after inoculation, the bacterial growth was quantitated fluorometrically. Therefore resazurin (0.6 mg/ml) was added in a volume of 20 μl to all wells 3 hours after inoculation, and the plates were re-incubated overnight. A change in colour from blue to pink indicated the growth of bacteria. The fluorescence was read in a computer-controlled fluorometer (Cytofluor Biosearch) at an excitation wavelength of 530 nm and an emission wavelength of 590 nm. The % growth inhibition achieved by the compounds was calculated according to standard methods.

[2] = system: Staphylococcus aureus (ATCC29213); experiment: Microtitre plate assay, IC90 determination, STA 29213
Experimental: as §1, §2, §3

[3] = system: Enterococcus faecalis (ATCC29212); experiment: Microtitre plate assay, IC90 determination, EFA 29212; details: Enterococcus faecalis ATCC29212, 90% inhibitory concentration for bacterial growth, resazurin
Experimental: as §1, §2, §3

[4] = system: Streptococcus pneumoniae (ATCC6305); experiment: Microtitre plate assay, IC90 determination, SPN 6305; details: 90% inhibitory concentration for bacterial growth, resazurin
Experimental: as §1, §2, §3

[5] = system: Streptococcus pyogens (ATCC8668); experiment: Microtitre plate assay, IC90 determination, SPY 8668
Experimental: as §1, §2, §3

M. Smegmatis ATCC607 = experiment: In-vitro anti-bacterial activity against strain M. smegmatis ATCC607; details: for IC90: Mycolicibacterium smegmatis
Experimental: Flat-bottom, sterile 96-well plastic microtiter plates were filled with 180 μl of sterile deionized water, supplemented with 0.25% BSA. Subsequently, stock solutions (7.8× final test concentration) of compounds were added in 45 μl volumes to a series of duplicate wells in column 2 so as to allow evaluation of their effects on bacterial growth. Serial five-fold dilutions (45 μl in 180 μl) were made directly in the microtiter plates from column 2 to 11 using a customised robot system (Zymark Corp., Hopkinton, Mass.). Pipette tips were changed after every 3 dilutions to minimize pipetting errors with high hydrophobic compounds. Untreated control samples with (column 1) and without (column 12) inoculum were included in each microtiter plate. Approximately 250 CFU per well of bacteria inoculum, in a volume of 100 μl in 2.8× Mueller-Hinton broth medium, was added to the rows A to H, except column 12. The same volume of broth medium without inoculum was added to column 12 in row A to H. The cultures were incubated at 37° C. for 48 hours in a humidified 5% CO2 atmosphere (incubator with open air valve and continuous ventilation). At the end of incubation, two days after inoculation, the bacterial growth was quantitated fluorometrically. Therefore Alamar Blue (10×) was added to all wells in a volume of 20 μl and plates were incubated for another 2 hours at […]
The fluorescence was read in a computer-controlled fluorometer (Cytofluor, Biosearch) at an excitation wavelength of 530 nm and an emission wavelength of 590 nm (gain 30).

[6] = Staphylococcus aureus ATCC29213, 90% inhibitory concentration for bacterial growth, resazurin, read-out: IC90 (μg/ml) STA 29213
[7] = Streptococcus pneumoniae ATCC6305, read-out: IC90 (μg/ml) SPN 6305
[8] = ATCC607, 90% inhibitory concentration for bacterial growth, 48 hours, Alamar Blue fluorescence, read-out: M. smegmatis IC90
[9] = Staphylococcus aureus, ATCC29213, read-out: IC90 (μg/ml) STA 29213
[10] = Streptococcus pneumoniae, ATCC6305, read-out: IC90 (μg/ml) SPN 6305, Streptococcus pneumoniae ATCC6305
[11] = ATCC607, 48 h, read-out: M. smegmatis IC90 (μg/ml), 90% inhibitory concentration for bacterial growth, Alamar Blue fluorescence

| IC90 [2, 6] [µg/mL] | IC90 [4, 7] [µg/mL] | Structure (SMILES) | IC90 (M. Smegmatis ATCC607; [8]) [µg/mL] | IC90 [2, 9] [µg/mL] | IC90 [4, 10] [µg/mL] | IC90 (M. Smegmatis ATCC607; [11]) [µg/mL] | also measured |
| --- | --- | --- | --- | --- | --- | --- | --- |
| 15.6 (≈ 31.6 µM) | 7.82 (≈ 15.8 µM) | COc1nc2ccc(Br)cc2cc1C(/C(=C/CN(C)C)c1ccsc1)c1ccccc1 (centres unmarked) [Compound 17] | 39.2 (≈ 79.4 µM) | – | – | – | IC90 ([1]; Pseudomonas aeruginosa ATCC27853, 90% inhibitory concentration for bacterial growth, resazurin, read-out: IC90 (μg/ml) PAE 27853): 44 µg/mL (≈ 89.1 µM); IC90 ([3]; read-out: IC90 (μg/ml) EFA 29212): 39.2 µg/mL (≈ 79.4 µM); IC90 ([5]; Streptococcus pyogens ATCC8668, 90% inhibitory concentration for bacterial growth, resazurin, read-out: IC90 (μg/ml) SPY 8668): 19.6 µg/mL (≈ 39.8 µM) |
| – | – | COc1nc2ccc(Br)cc2cc1C(/C(=C/C[N+](C)(C)C)c1cccc(F)c1)c1ccccc1 (centres unmarked) [Compound 23] | – | 1.65 | 1.85 | 1.85 | IC90 ([1]; Pseudomonas aeruginosa, ATCC27853, read-out: IC90 (μg/ml) PAE 27853): 6.55 µg/mL; IC90 ([5]; Streptococcus, ATCC8668, read-out: IC90 (μg/ml) SPY 8668): 1.65 µg/mL |
| – | – | COc1nc2ccc(Br)cc2cc1C(=C(CCN(C)C)c1cccc(F)c1)c1ccccc1 [Compound 38] | – | – | – | – | IC90 (μg/ml) PAE 27853 ([1]; Pseudomonas aeruginosa ATCC27853, 90% inhibitory concentration for bacterial growth, resazurin): 8.99 µg/mL (≈ 17.8 µM); IC90 (μg/ml) STA 29213 ([2]; Staphylococcus aureus ATCC29213, 90% inhibitory concentration for bacterial growth, resazurin): 10.08 µg/mL (≈ 19.9 µM); IC90 (μg/ml) EFA 29212 [3]: 8.01 µg/mL (≈ 15.8 µM); IC90 (μg/ml) SPN 6305 ([4]; Streptococcus pneumoniae ATCC6305): 8.01 µg/mL (≈ 15.8 µM); IC90 (μg/ml) SPY 8668 ([5]; Streptococcus pyogens ATCC8668, 90% inhibitory concentration for bacterial growth, resazurin): 3.58 µg/mL (≈ 7.08 µM); M. smegmatis IC90 (M. Smegmatis ATCC607; 90% inhibitory concentration for bacterial growth, 48 hours, Alamar Blue fluorescence): 8.01 µg/mL |
| 47.7 (≈ 100 µM) | 21.3 (≈ 44.7 µM) | COc1ccc(/C(CCCCN2CCCCC2)=C(/c2ccccc2)c2cnc3ccccc3c2)cc1 [Compound 51] | 7.55 (≈ 15.8 µM) | – | – | – | – |
| – | – | Clc1ccc(/C(CCCCN2CCCCC2)=C(/c2ccc(Cl)cc2)c2cnc3ccccc3c2)cc1 [Compound 52] | – | 10.3 (≈ 20 µM) | 10.3 (≈ 20 µM) | 1.63 (≈ 3.16 µM) | – |
| 9.09 (≈ 17.8 µM) | 10.2 (≈ 20 µM) | COc1ccc(/C(CCCCN2CCCCC2)=C(/c2ccc(Cl)cc2)c2cnc3ccccc3c2)cc1 [Compound 53] | 2.03 (≈ 3.97 µM) | – | – | – | – |
| – | – | N#Cc1ccc(/C(=C(\CCCCN2CCCCC2)c2ccccc2)c2cnc3ccccc3c2)cc1 [Compound 54] | – | 42 (≈ 89.1 µM) | 47.2 (≈ 100 µM) | 11.8 (≈ 25.1 µM) | – |
| – | – | N#Cc1ccc(/C(=C(\CCCCN2CCCCC2)c2ccc(Cl)cc2)c2cnc3ccccc3c2)cc1 [Compound 55] | – | 8.02 (≈ 15.8 µM) | 10.1 (≈ 20 µM) | 8.02 (≈ 15.8 µM) | – |
| – | – | COc1ccc(/C(=C(\CCCCN2CCCCC2)c2ccc(Cl)cc2)c2cnc3ccccc3c2)cc1 [Compound 58] | – | 10.2 (≈ 20 µM) | 12.8 (≈ 25.1 µM) | 8.1 (≈ 15.8 µM) | – |
| 1.97 (≈ 3.17 µM) | 2.48 (≈ 3.99 µM) | COc1nc2ccc(Br)cc2cc1C(/C(=C/C#N)CCCCN1CC2CC1CN2Cc1ccccc1)c1ccccc1 (centres unmarked) [Compound 60] | 1.97 (≈ 3.17 µM) | – | – | – | – |
| 1.76 (≈ 3.16 µM) | 1.76 (≈ 3.16 µM) | CCN(C)CCC/C=C(\CCc1ccccc1)C(c1ccccc1)c1cc2cc(Br)ccc2nc1OC (centres unmarked) [Compound 61] | 1.76 (≈ 3.16 µM) | – | – | – | – |
